Test results reported in patent publication US20220112187A1, “PYRAZOLOPYRIDINE AMINE COMPOUNDS FOR THE TREATMENT OF AUTOIMMUNE DISEASE” (Hoffmann-La Roche Inc., priority 2018, published 2022).

The compounds below were run against T1, human TLR8 (Homo sapiens, UniProt Q9NR97) (assay: HEK293-Blue-hTLR-8 cells assay (SEAP reporter, R848 stimulation)). Settings: HEK293-Blue-hTLR8 cells, R848 ligand, 20 hrs incubation.
T1 sequence (Q9NR97 27-1041): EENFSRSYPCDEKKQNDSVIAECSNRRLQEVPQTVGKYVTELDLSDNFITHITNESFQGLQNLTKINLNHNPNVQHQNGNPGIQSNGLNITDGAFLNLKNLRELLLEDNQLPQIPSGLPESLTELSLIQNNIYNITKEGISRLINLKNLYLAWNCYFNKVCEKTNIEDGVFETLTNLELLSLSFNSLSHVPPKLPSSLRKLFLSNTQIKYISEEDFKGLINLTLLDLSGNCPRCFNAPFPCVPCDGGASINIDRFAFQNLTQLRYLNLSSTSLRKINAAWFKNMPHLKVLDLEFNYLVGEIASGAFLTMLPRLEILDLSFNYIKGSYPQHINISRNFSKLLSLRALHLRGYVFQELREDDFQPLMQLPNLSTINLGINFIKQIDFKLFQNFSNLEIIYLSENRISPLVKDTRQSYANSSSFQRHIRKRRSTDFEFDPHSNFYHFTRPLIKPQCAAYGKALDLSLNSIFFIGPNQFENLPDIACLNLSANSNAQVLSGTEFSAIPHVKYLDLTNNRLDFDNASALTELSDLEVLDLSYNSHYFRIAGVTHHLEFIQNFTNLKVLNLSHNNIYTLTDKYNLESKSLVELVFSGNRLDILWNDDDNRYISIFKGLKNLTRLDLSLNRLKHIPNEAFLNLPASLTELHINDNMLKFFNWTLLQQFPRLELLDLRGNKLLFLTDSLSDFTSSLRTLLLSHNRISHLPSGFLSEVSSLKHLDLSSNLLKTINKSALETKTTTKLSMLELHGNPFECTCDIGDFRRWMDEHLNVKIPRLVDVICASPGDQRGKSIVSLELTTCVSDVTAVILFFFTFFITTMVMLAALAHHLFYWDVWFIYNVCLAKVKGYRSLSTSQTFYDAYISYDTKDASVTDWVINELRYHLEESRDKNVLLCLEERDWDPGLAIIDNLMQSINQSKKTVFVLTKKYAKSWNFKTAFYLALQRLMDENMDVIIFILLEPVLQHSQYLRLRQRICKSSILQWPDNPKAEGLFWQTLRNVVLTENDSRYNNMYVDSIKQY
Type: cell-based
Source text: A stable HEK293-Blue-hTLR-8 cell line was purchased from InvivoGen (Cat. #: hkb-htlr8, San Diego, Calif., USA). These cells were originally designed for studying the stimulation of human TLR8 by monitoring the activation of NF-κB. A SEAP (secreted embryonic alkaline phosphatase) reporter gene was placed under the control of the IFN-β minimal promoter fused to five NF-κB and AP-1-binding sites. The SEAP was induced by activating NF-κB and AP-1 via stimulating HEK-Blue hTLR8 cells with TLR8 ligands. Therefore the reporter expression was declined by TLR8 antagonist under the stimulation of a ligand, such as R848, for incubation of 20 hrs. The cell culture supernatant SEAP reporter activity was determined using QUANTI-Blue™ kit (Cat. #: rep-qb1, Invivogen, San Diego, Ca, USA) at a wavelength of 640 nm, a detection medium that turns purple or blue in the presence of alkaline phosphatase.
HEK293-Blue-hTLR8 cells were incubated at a density of 250,000˜450,000 cells/mL in a volume of 170 μL in a 96-well plate in Dulbecco's Modified Eagle's medium (DMEM) containing 4.5 g/L glucose, 50 U/mL penicillin, […], […], 2 mM L-glutamine, 10% (v/v) heat-inactivated fetal bovine serum with addition of 20 μL test compound in a serial dilution in the presence of final DMSO at 1% and 10 μL of 60 uM R848 in above DMEM, perform incubation under 37° C. in a CO2 incubator for 20 hrs. Then 20 μL of the supernatant from each well was incubated with 180 μL Quanti-blue substrate solution at 37° C. for 2 hrs and the absorbance was read at 620˜655 nm using a spectrophotometer. The signalling pathway that TLR8 activation leads to downstream NF-κB activation has been widely accepted, and therefore similar reporter assay was modified for evaluating TLR8 antagonist.

Row | SMILES | IC50
1 | C[C@@H]1CN(c2ccc(C#N)n3nccc23)C[C@H](CN2CCC3NCCC3C2)O1 (stereo partly drawn) [Example 41, 4-[(2S,6R)-2-(1,2,3,3a,4,6,7,7a-octahydropyrrolo[3,2-c]pyridin-5-ylmethyl)-6-methyl-morpholin-4-yl]pyrazolo[1,5-a]pyridine-7-carbonitrile] | 29 nM
2 | C[C@@H]1CN(c2ccc(C#N)n3nccc23)C[C@H](CN2CCC3(CCCNC3)C2)O1 (stereo partly drawn) [Example 25, 4-[(2S,6R)-2-(2,9-diazaspiro[4.5]decan-2-ylmethyl)-6-methyl-morpholin-4-yl]pyrazolo[1,5-a]pyridine-7-carbonitrile] | 88 nM
3 | C[C@@H]1CN(c2ccc(C#N)n3nccc23)C[C@H](CN2CCNCC2Cc2ccccc2)O1 (stereo partly drawn) [Example 59, 4-[(2S,6R)-2-[(2-benzylpiperazin-1-yl)methyl]-6-methyl-morpholin-4-yl]pyrazolo[1,5-a]pyridine-7-carbonitrile] | 6 nM
4 | C[C@@H]1CN(c2ccc(C#N)n3nccc23)C[C@H](CN2C3CNCC2COC3)O1 [Example 57, 4-[(2R,6S)-2-methyl-6-(3-oxa-7,9-diazabicyclo[3.3.1]nonan-9-ylmethyl)morpholin-4-yl]pyrazolo[1,5-a]pyridine-7-carbonitrile] | 62 nM
5 | C[C@@H]1CN(c2ccc(C#N)n3nccc23)C[C@H](CN2CC3(CC(N)C3)C2)O1 [Example 11, 4-[(2S,6R)-2-[(6-amino-2-azaspiro[3.3]heptan-2-yl)methyl]-6-methyl-morpholin-4-yl]pyrazolo[1,5-a]pyridine-7-carbonitrile] | 930 nM
6 | C[C@@H]1CN(c2ccc(C#N)n3nccc23)C[C@H](CN2CC3CCC(C2)N3)O1 [Example 31, 4-[(2S,6R)-2-(3,8-diazabicyclo[3.2.1]octan-3-ylmethyl)-6-methyl-morpholin-4-yl]pyrazolo[1,5-a]pyridine-7-carbonitrile] | 97 nM
7 | C[C@@H]1CN(c2ccc(C#N)n3nccc23)C[C@H](CN2CC3CNCCC32)O1 (stereo partly drawn) [Example 52, 4-[(2S,6R)-2-(3,7-diazabicyclo[4.2.0]octan-7-ylmethyl)-6-methyl-morpholin-4-yl]pyrazolo[1,5-a]pyridine-7-carbonitrile] | 53 nM
8 | C[C@@H]1CN(c2ccc(C#N)n3nccc23)C[C@H](CN2CCC3(CCNC3)C2=O)O1 (stereo partly drawn) [Example 21, 4-[(2R,6R)-2-methyl-6-[(1-oxo-2,7-diazaspiro[4.4]nonan-2-yl)methyl]morpholin-4-yl]pyrazolo[1,5-a]pyridine-7-carbonitrile] | 39 nM
9 | C[C@@H]1CN(c2ccc(C#N)n3nccc23)C[C@H](CN2CCC(CCN)CC2)O1 [Example 13, 4-[(2S,6R)-2-[[4-(2-aminoethyl)-1-piperidyl]methyl]-6-methyl-morpholin-4-yl]pyrazolo[1,5-a]pyridine-7-carbonitrile] | 740 nM
10 | C[C@@H]1CN(c2ccc(C#N)n3nccc23)C[C@H](CN2CCC(N3CCCCC3)CC2)O1 [Example 16, 4-[(2R,6S)-2-methyl-6-[[4-(1-piperidyl)-1-piperidyl]methyl]morpholin-4-yl]pyrazolo[1,5-a]pyridine-7-carbonitrile] | 19 nM
11 | C[C@@H]1CN(c2ccc(C#N)n3nccc23)C[C@H](CN2C3COCC2CC(N)C3)O1 (stereo partly drawn) [Example 58, 4-[(2S,6R)-2-[(7-amino-3-oxa-9-azabicyclo[3.3.1]nonan-9-yl)methyl]-6-methyl-morpholin-4-yl]pyrazolo[1,5-a]pyridine-7-carbonitrile] | 58 nM
12 | C[C@@H]1CN(c2ccc(C#N)n3nccc23)C[C@H](CN2CCC3(CCCCN3)CC2)O1 [Example 47, 4-[(2S,6R)-2-(1,9-diazaspiro[5.5]undecan-9-ylmethyl)-6-methyl-morpholin-4-yl]pyrazolo[1,5-a]pyridine-7-carbonitrile] | 31 nM
13 | C[C@@H]1CN(c2ccc(C#N)n3nccc23)C[C@H](CN2CC3CCNCC32)O1 (stereo partly drawn) [Example 56, 4-[(2S,6R)-2-(3,8-diazabicyclo[4.2.0]octan-8-ylmethyl)-6-methyl-morpholin-4-yl]pyrazolo[1,5-a]pyridine-7-carbonitrile] | 480 nM
14 | C[C@@H]1CN(c2ccc(C#N)n3nccc23)C[C@H](CN2CCCC3(CNC3)C2)O1 [Example 33, 4-[(2S,6R)-2-(2,6-diazaspiro[3.5]nonan-6-ylmethyl)-6-methyl-morpholin-4-yl]pyrazolo[1,5-a]pyridine-7-carbonitrile] | 54 nM
15 | C[C@@H]1CN(c2ccc(C#N)n3nccc23)C[C@H](CN2CC(N)C(F)(F)C2)O1 (stereo partly drawn) [Example 35, 4-[(2S,6R)-2-[(4-amino-3,3-difluoro-pyrrolidin-1-yl)methyl]-6-methyl-morpholin-4-yl]pyrazolo[1,5-a]pyridine-7-carbonitrile] | 950 nM
16 | C[C@@H]1CN(c2ccc(C#N)n3nccc23)C[C@H](CN2CC3CCC2CN3)O1 (stereo partly drawn) [Example 30, 4-[(2S,6R)-2-(2,5-diazabicyclo[2.2.2]octan-2-ylmethyl)-6-methyl-morpholin-4-yl]pyrazolo[1,5-a]pyridine-7-carbonitrile] | 100 nM
17 | C[C@@H]1CN(c2ccc(C#N)n3nccc23)C[C@H](CN2CCC3NCC3C2)O1 (stereo partly drawn) [Example 70, 4-[(2S,6R)-2-(3,7-diazabicyclo[4.2.0]octan-3-ylmethyl)-6-methyl-morpholin-4-yl]pyrazolo[1,5-a]pyridine-7-carbonitrile] | 120 nM

Now from value to compound:

Row | IC50 | SMILES
18 | 64 nM | CC1CNCCN1C[C@H]1CN(c2ccc(C#N)n3nccc23)C[C@@H](C)O1 (single isomer, unassigned) [Example 50A]
19 | 91 nM | C[C@@H]1CN(c2ccc(C#N)n3nccc23)C[C@H](CN2CCCC3(CCNCC3)C2)O1 [Example 32, 4-[(2S,6R)-2-(2,9-diazaspiro[5.5]undecan-2-ylmethyl)-6-methyl-morpholin-4-yl]pyrazolo[1,5-a]pyridine-7-carbonitrile]
20 | 65 nM | CC1CN(C[C@H]2CN(c3ccc(C#N)n4nccc34)C[C@@H](C)O2)CCN1 (stereo partly drawn) [Example 28, 4-[(2R,6S)-2-methyl-6-[(3-methylpiperazin-1-yl)methyl]morpholin-4-yl]pyrazolo[1,5-a]pyridine-7-carbonitrile]
21 | 78 nM | C[C@@H]1CN(c2ccc(C#N)n3nccc23)C[C@H](CN2CCNCC2)O1 [Example 5, 4-[(2R,6S)-2-methyl-6-(piperazin-1-ylmethyl)morpholin-4-yl]pyrazolo[1,5-a]pyridine-7-carbonitrile]
22 | 140 nM | C[C@@H]1CN(c2ccc(C#N)n3nccc23)C[C@H](CN2CCC3(CCNC3)C2)O1 (stereo partly drawn) [Example 6, 4-[(2S,6R)-2-(2,7-diazaspiro[4.4]nonan-2-ylmethyl)-6-methyl-morpholin-4-yl]pyrazolo[1,5-a]pyridine-7-carbonitrile]
23 | 55 nM | C[C@@H]1CN(c2ccc(C#N)n3nccc23)C[C@H](CN2CCOC3(CCNCC3)C2)O1 [Example 71, 4-[(2R,6S)-2-methyl-6-(1-oxa-4,9-diazaspiro[5.5]undecan-4-ylmethyl)morpholin-4-yl]pyrazolo[1,5-a]pyridine-7-carbonitrile]
24 | 130 nM | C[C@@H]1CN(c2ccc(C#N)n3nccc23)C[C@H](CN2CC3(CCCNC3)C2)O1 [Example 10, 4-[(2S,6R)-2-(2,8-diazaspiro[3.5]nonan-2-ylmethyl)-6-methyl-morpholin-4-yl]pyrazolo[1,5-a]pyridine-7-carbonitrile]
